From patent US12590071B2, “Hydrazone derivative in which terminal amine group is substituted with aryl group or heteroaryl group, and use thereof” (KOREA INSTITUTE OF SCIENCE AND TECHNOLOGY, priority 2018, dated 2026)

What was measured:
[1] = molecular target: T1, tau protein (Homo sapiens, UniProt P10636); assay: Tau protein aggregation inhibition in tau-BiFC cell model; assay type: cell-based; details: tau-BiFC cells treated together with Forskolin, 48 hours
T1 construct: expressed in transfected cells
Protocol: (§1) In order to select new tau protein aggregation-inhibiting materials, tau-BiFC cell models, in which it is easy to observe the formation of tau oligomers in living cells, were used. […] After 48 hours, intracellular nuclei were stained using Hoechst (treatment concentration 2 μg/mL), and BiFC fluorescence intensity was automatically quantified using Operetta (PerkinElmer) to count stained nuclei in each well from the total well plates. […] Further, the degree of cytotoxicity induced by the newly synthesized compound is also based on the 100% survival rate of the group treated with Forskolin alone, and the cytotoxicity value of the compound was calculated by the equation “number of stained nuclei in the group treated with the compound/number of stained nuclei in the group treated with Forskolin x 100”.
(§2) In order to evaluate dose-dependent tau protein aggregation inhibition effects of the compounds selected according to Experimental Example 1, the selected compounds were treated in tau-BiFC cells at concentrations of 0.03 µM, […], 0.3 μM, 1 μM, 3 μM, 10 μM, and 30 μM, respectively, together with Forskolin (treatment concentration 30 µM) as a tau protein aggregation inducing material. After 48 hours, tau protein aggregation reaction and cytotoxicity degree were analyzed by observing cell images. The IC50 and toxicity of the compounds were analyzed by nonlinear regression analysis of prism software (Graph Pad).

[2] = test system: Tau-BiFC cells; assay: Cytotoxicity (cell survival rate) in tau-BiFC cells; details: group treated with Forskolin alone = 100%
Protocol: as §1, §2

[3] = Pharmacokinetics in SD rat (plasma PK parameters); assay type: in vivo
Protocol: Specifically, an SD rat of 7 to 8 weeks of age (Core Tech, Hana Trading Co., Ltd.) having a body weight of about 250 g to 300 g was purchased, and was managed in a simple breeding room for small animals set to a temperature of 22° C.±2° C., a relative humidity of 50%±5%, a lighting time of 12 hours (light up at 8:00 A.M., turn off at 8:00 P.M.), and an illuminance of 150 lux to 300 lux. During the entire test period, feed was freely provided, RO water was freely provided, and fasting was performed for 16 hours before the oral administration of a drug. After preparing a drug under the conditions shown in Table 5 below, the drug was intravenously injected (IV) or orally administered (PO). 500 µL of transfused blood was collected in a tube containing sodium heparin and centrifuged at 2° C. to 8° C. at 8,000 rpm for 6 minutes to obtain plasma from the blood. The obtained plasma was added to 180 μL of acetonitrile containing internal standard materials, vortexed, and then centrifuged at 15,000 rpm at 4° C. for 5 minutes to obtain a supernatant. The obtained supernatant was analyzed by LC-MS/MS.
Specific PK parameters were acquired using the Phoenix WinNonlin version 6.4 program (Phersight, USA) and wore calculated with a non-compartmental analysis model.

T1 sequence (P10636 2-441 isoform P10636-8 limits assumed): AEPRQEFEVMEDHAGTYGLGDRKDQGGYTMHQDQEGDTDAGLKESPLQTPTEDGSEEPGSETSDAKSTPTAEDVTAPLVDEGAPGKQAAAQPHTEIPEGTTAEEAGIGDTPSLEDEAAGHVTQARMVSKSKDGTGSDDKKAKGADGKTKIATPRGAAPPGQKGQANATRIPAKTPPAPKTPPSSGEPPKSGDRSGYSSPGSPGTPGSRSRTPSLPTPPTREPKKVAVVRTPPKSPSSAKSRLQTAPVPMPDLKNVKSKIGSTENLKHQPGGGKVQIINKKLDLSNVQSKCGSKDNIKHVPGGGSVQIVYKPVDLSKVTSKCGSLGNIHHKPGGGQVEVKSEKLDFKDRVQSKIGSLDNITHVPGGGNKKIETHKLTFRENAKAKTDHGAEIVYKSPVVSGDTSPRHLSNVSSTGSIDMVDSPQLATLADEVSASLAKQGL

Compound: Cc1nc(-c2ccc(NN=C(C#N)C#N)cc2)ncc1F [Compound 3, (4-(5-fluoro-4-methylpyrimidin-2-yl)phenyl)carbonohydrazonoyl dicyanide]
- IC50 [1]: 2400 nM
- Cell survival rate (% @ 10 μM) [2]: 66%

Compound: CCc1ccnc(-c2ccc(NN=C(C#N)C#N)cc2)n1 [Compound 6, (4-(4-ethylpyrimidin-2-yl)phenyl)carbonohydrazonoyl dicyanide]
- IC50 [1]: 900 nM
- Cell survival rate (% @ 10 μM) [2]: 147.1%

Compound: N#CC(C#N)=NNc1ccc(-c2ccccn2)cc1 [Compound 10, (4-(pyridin-2-yl)phenyl)carbonohydrazonoyl dicyanide]
- IC50 [1]: 520 nM
- Cell survival rate (% @ 10 μM) [2]: 110.1%

Compound: N#CC(C#N)=NNc1ccc(-c2cncs2)cc1 [Compound 20, (4-(thiazol-5-yl)phenyl)carbonohydrazonoyl dicyanide]
- IC50 [1]: 600 nM
- Cell survival rate (% @ 10 μM) [2]: 90%

Compound: N#CC(C#N)=NNc1ccc(-c2ncccn2)cc1F [Compound 38, (2-fluoro-4-(pyrimidin-2-yl)phenyl)carbonohydrazonoyl dicyanide]
- IC50 [1]: 940 nM
- Cell survival rate (% @ 10 μM) [2]: 88.9%

Compound: N#CC(C#N)=NNc1ccc(-c2ncccn2)c(F)c1 [Compound 39, (3-fluoro-4-(pyrimidin-2-yl)phenyl)carbonohydrazonoyl dicyanide]
- IC50 [1]: 1510 nM
- Cell survival rate (% @ 10 μM) [2]: 89.8%

Compound: Cc1ccnc(-c2ccc(NN=C(C#N)C#N)cc2F)n1 [Compound 40, (3-fluoro-4-(4-methylpyrimidin-2-yl)phenyl)carbonohydrazonoyl dicyanide]
- IC50 [1]: 2500 nM
- Cell survival rate (% @ 10 μM) [2]: 101.3%

Compound: COc1cc(-c2ncc(C)cn2)ccc1NN=C(C#N)C#N [Compound 41, (2-methoxy-4-(5-methylpyrimidin-2-yl)phenyl)carbonohydrazonoyl dicyanide]
- IC50 [1]: 7000 nM
- Cell survival rate (% @ 10 μM) [2]: 126.8%

Compound: COc1cc(-c2ncccn2)ccc1NN=C(C#N)C#N [Compound 43, (2-methoxy-4-(pyrimidin-2-yl)phenyl)carbonohydrazonoyl dicyanide]
- IC50 [1]: 1840 nM
- Cell survival rate (% @ 10 μM) [2]: 112.3%

Compound: N#CC(C#N)=NNc1ccc(-c2cnc3nccn3c2)cc1 [Compound 51, (4-(imidazo[1,2-a]pyrimidin-6-yl)phenyl)carbonohydrazonoyl dicyanide]
- IC50 [1]: 7420 nM
- Cell survival rate (% @ 10 μM) [2]: 84.2%

Compound: N#CC(C#N)=NNc1ccc(-c2cnc3ccccc3n2)cc1 [Compound 52, (4-(quinoxalin-2-yl)phenyl)carbonohydrazonoyl dicyanide]
- IC50 [1]: 1400 nM
- Cell survival rate (% @ 10 μM) [2]: 139.6%

Compound: N#CC(C#N)=NNc1ccc(-c2ccc3nccn3c2)cc1 [Compound 53, (4-(imidazo[1,2-a]pyridin-6-yl)phenyl)carbonohydrazonoyl dicyanide]
- IC50 [1]: 1300 nM
- Cell survival rate (% @ 10 μM) [2]: 158.2%

Compound: Cn1cc2cc(-c3ccc(NN=C(C#N)C#N)cc3)ccc2n1 [Compound 56, (4-(2-methyl-2H-indazol-5-yl)phenyl)carbonohydrazonoyl dicyanide]
- AUCall ([3]; SD rat plasma, IV 2 mg/kg): 17481.28 hr, ng/mL
- Cmax ([3]; SD rat plasma, IV 2 mg/kg): 9140 ng/mL
- Tmax ([3]; SD rat plasma, IV 2 mg/kg): 0.12 h
- clearance ([3]; SD rat plasma, IV 2 mg/kg): 1.85 mL/min/kg
- half-life ([3]; SD rat plasma, IV 2 mg/kg): 1.57 h
- AUCall ([3]; SD rat plasma, PO 10 mg/kg): 77995.11 hr, ng/mL
- Cmax ([3]; SD rat plasma, PO 10 mg/kg): 11400 ng/mL
- Tmax ([3]; SD rat plasma, PO 10 mg/kg): 1.5 h
- half-life ([3]; SD rat plasma, PO 10 mg/kg): 3.21 h
- F ([3]; SD rat, PO 10 mg/kg versus IV): 89.2%

Compound: N#CC(C#N)=NNc1ccc(-c2ccc3[nH]ccc3c2)cc1 [Compound 58, (4-(1H-indol-5-yl)phenyl)carbonohydrazonoyl dicyanide]
- IC50 [1]: 1200 nM
- Cell survival rate (% @ 10 μM) [2]: 113.8%

Compound: COc1cccc2sc(NN=C(C#N)C#N)nc12 [Compound 59, (4-methoxybenzo[d]thiazol-2-yl)carbonohydrazonoyl dicyanide]
- IC50 [1]: 500 nM
- Cell survival rate (% @ 10 μM) [2]: 120.3%

Compound: N#CC(C#N)=NNc1cnc2ccccc2c1 [Compound 64, quinolin-3-ylcarbonohydrazonoyl dicyanide]
- IC50 [1]: 190 nM
- Cell survival rate (% @ 10 μM) [2]: 112.5%

Compound: Cn1cc2ccc(NN=C(C#N)C#N)cc2n1 [Compound 65, (2-methyl-2H-indazol-6-yl)carbonohydrazonoyl dicyanide]
- IC50 [1]: 72 nM
- Cell survival rate (% @ 10 μM) [2]: 103.3%

Compound: Cn1ncc2cc(NN=C(C#N)C#N)ccc21 [Compound 66, (1-methyl-1H-indazol-5-yl)carbonohydrazonoyl dicyanide]
- IC50 [1]: 12 nM
- Cell survival rate (% @ 10 μM) [2]: 96.8%

Compound: Cn1ccc2cc(NN=C(C#N)C#N)ccc21 [Compound 68, (1-methyl-1H-indol-5-yl)carbonohydrazonoyl dicyanide]
- IC50 [1]: 60 nM
- Cell survival rate (% @ 10 μM) [2]: 177.2%

Compound: N#CC(C#N)=NNc1ccc2[nH]ccc2c1 [Compound 71, (1H-indol-5-yl)carbonohydrazonoyl dicyanide]
- IC50 [1]: 860 nM
- Cell survival rate (% @ 10 μM) [2]: 116.4%

Compound: Cc1n[nH]c2cc(NN=C(C#N)C#N)ccc12 [Compound 73, (3-methyl-1H-indazol-6-yl)carbonohydrazonoyl dicyanide]
- IC50 [1]: 1100 nM
- Cell survival rate (% @ 10 μM) [2]: 138.5%

Compound: Cn1ccc2cc(NN=C(C#N)C#N)cnc21 [Compound 76, (1-methyl-1H-pyrrolo[2,3-b]pyridin-5-yl)carbonohydrazonoyl dicyanide]
- IC50 [1]: 40 nM
- Cell survival rate (% @ 10 μM) [2]: 195.8%

Compound: Cc1c[nH]c2ncc(NN=C(C#N)C#N)cc12 [Compound 82, (3-methyl-1H-pyrrolo[2,3-b]pyridin-5-yl)carbonohydrazonoyl dicyanide]
- IC50 [1]: 430 nM
- Cell survival rate (% @ 10 μM) [2]: 120.2%

Compound: N#CC(C#N)=NNc1ccc2nc(NC(=O)c3cncnc3)sc2c1 [Compound 94, (2-(pyrimidine-5-carboxamido)benzo[d]thiazol-6-yl)carbonohydrazonoyl dicyanide]
- IC50 [1]: 2700 nM
- Cell survival rate (% @ 10 μM) [2]: 95.3%

Compound: Cc1ncc(C(=O)Nc2nc3ccc(NN=C(C#N)C#N)cc3s2)cn1 [Compound 95, (2-(2-methylpyrimidine-5-carboxamido)benzo[d]thiazol-6-yl)carbonohydrazonoyl dicyanide]
- IC50 [1]: 800 nM
- Cell survival rate (% @ 10 μM) [2]: 100.8%

Compound: Cc1ncncc1C(=O)Nc1nc2ccc(NN=C(C#N)C#N)cc2s1 [Compound 96, (2-(4-methylpyrimidine-5-carboxamido)benzo[d]thiazol-6-yl)carbonohydrazonoyl dicyanide]
- IC50 [1]: 400 nM
- Cell survival rate (% @ 10 μM) [2]: 106.1%

Compound: C#Cc1cnc(-c2ccc(NN=C(C#N)C#N)cc2)nc1 [Compound 149, (4-(5-ethynylpyrimidin-2-yl)phenyl)carbohydrazonoyl dicyanide]
- IC50 [1]: 100 nM
- Cell survival rate (% @ 10 μM) [2]: 113.9%

Compound: (2-(pyrazine-2-carboxamido)benzo[d]thiazol-5-yl)carbonohydrazonoyl dicyanide [Compound 99]
- IC50 [1]: 100 nM
- Cell survival rate (% @ 10 μM) [2]: 113.1%
